Results reported in patent publication US8921107B2, “Method for differentiating human neural progenitor cells into dopaminergic neurons, and medium for differentiation thereof” (College of Medicine Pochon Cha University Industry-Academic …, priority 2010, dated 2014).
Entries after “also recorded” stand apart in the source; their conditions may differ.

Legend:
[1] = test system: human neural progenitor cells (hNPCs); experiment: Differentiation of hNPCs into dopaminergic neurons in media with various additives; TH and Tuj1 counted with DAPI staining (FIG. 1); type: cell-based
Method: For dopaminergic differentiation, hNPCs were plated onto a culture dish pre-coated with 15 μg/ml of poly-L-ornithine and 4 μg/ml of fibronectin at a density of 30,000 cells/cm^2; and after 2 or 3 days the cells were cultured in a NB medium comprising differentiation-inducing agents such as 2% of B27 minus-AO supplement (GIBCO), 10 μM of forskolin, 1 mM of db-cAMP and […] of fusaric acid, at 37° C. for 7 days, unless otherwise described.
hNPCs were washed with PBS three times and then fixed with 4% paraformaldehyde in PBS for 10 minutes. The cells were washed with PBS three times and then blocked by reacting with 3% Normal goat serum, 0.2% Triton X-100 and 1% BSA in PBS at room temperature for 1 hour. […]
hNPCs were differentiated into dopaminergic neurons in media obtained by adding interleukin 1 beta, db-cAMP, and fusaric acid (Fus), in various concentrations and combinations, to a Neurobasal medium [differentiation medium (DM) control]. TH (a dopaminergic neuron marker) and Tuj1 (a neural marker) were measured through the DAPI staining (FIG. 1).

[2] = test system: human neural progenitor cells (hNPCs); experiment: Substitution potential for SHH and FGF8 as differentiation-inducing agents; TH expression (FIG. 4); type: cell-based
Method: In order to evaluate substitution potential for the expensive SHH and FGF8 that are of limited use as a differentiation-inducing agent, hNPCs were proliferated in a DMEM/F12 (1:1) Glutamax medium. After induction of the differentiation in a Neurobasal (NB) medium (Invitrogen) using 2% of B-27, 200 ng/ml of SHH, 25 ng/ml of FGF8, 10 μM of forskolin, 100 μM of fusaric acid, and 100 μM of db-cAMP, the expression levels of TH were measured (FIG. 4).

[3] = test system: human neural progenitor cells (hNPCs); experiment: Differentiation of hNPCs under hypoxia or normoxia; TH expression (FIG. 5); type: cell-based; settings: NB medium with 2% B-27, 10 μM forskolin, 100 μM fusaric acid, 100 μM db-cAMP; 3% versus 21% oxygen partial pressure
Method: hNPCs were proliferated in a DMEM/F12 (1:1) Glutamax medium, and then differentiated in a Neurobasal (NB) medium (Invitrogen) containing 2% of B-27, 10 μM of forskolin, 100 μM of fusaric acid, and 100 μM of db-cAMP, under the hypoxia condition (3% of oxygen partial pressure) or the normoxia condition (21% of oxygen partial pressure). After induction of the differentiation, the expression levels of TH were measured (FIG. 5).

[4] = test system: human neural progenitor cells (hNPCs); experiment: Differentiation of hNPCs in NB medium with or without 100 μM fusaric acid; TH and Tuj1 expression, immunocytochemistry and RT-PCR (FIGS. 2, 3); type: cell-based; settings: 100 μM fusaric acid added to NB medium with 2% B-27 minus-AO, 10 μM forskolin, 1 mM db-cAMP, versus without
Method: Total cellular RNAs were extracted from the hNPC, using Trizol and chloroform. cDNAs were synthesized from 500 ng of the total RNAs, using RNA Superscript II RTase, Oligo-d(T) primers, DTT and dNTPs, according to the manufacturer's protocol. The PCR was performed in a final volume of 20 μl containing 1 μl of cDNA and 1 μl of 10 pM primers, using a SYBR-Green mixture. The expressions of TH, DAT, GFAP, Nurr1, Tuj1, and Lmx1a were analyzed, using RPL22 as an internal control. The quantitative real-time PCR was performed using the LightCycler System. The amplification was monitored and analyzed through measuring the binding of the fluorescent dye SYBR Green to double-stranded DNA. The target DNAs were amplified by performing total 40 cycles, under the conditions at 95° C. for 10 seconds, at 60° C. for 10 seconds, at 72° C. for 20 seconds. Final extension was performed at 72° C. for 10 minutes. Results were expressed relative to the gene RPL-22 by comparative Ct method. The primers used in the PCR are described in Table 1. […]
hNPCs were proliferated in a DMEM/F12 (1:1) Glutamax medium, and then differentiated to neurons in a Neurobasal (NB) medium containing 2% of B-27 minus-AO supplement (GIBCO), 10 μM of forskolin, and 1 mM of db-cAMP, along with or without 100 μM of fusaric acid. After induction of the differentiation, the expression levels of TH and Tuj1 were measured (FIG. 2).

[5] = test system: TH-expressing cells (dopaminergic neurons) differentiated from hNPCs; experiment: Neuroprotective effect: differentiation induced in the presence of MPP (FIG. 6); type: cell-based, human
Excerpt: It is known that 1-methyl-4-phenylpyridium (MPP) induces cytotoxicity on dopaminergic neurons. Therefore, we evaluated functions of fusaric acid during the differentiation, through inducing differentiation in the presence of MPP (FIG. 6).

[6] = differentiation in medium containing fusaric acid, in the presence of MPP

For CCCCc1ccc(C(=O)O)nc1 [fusaric acid, 5-butylpicolinic acid], the “expression levels of TH and Tuj1 (differentiation potential)” value ([1]; culture medium containing db-cAMP and fusaric acid, compared with other combinations (interleukin 1 beta, db-cAMP, fusaric acid) in Neurobasal medium) was “highest expression levels of TH and Tuj1”, the “differentiation potential by concentration” value ([1]; db-cAMP and fusaric acid each at 100 μM) was “the highest differentiation potential was obtained” and the “differentiation into dopaminergic neurons (TH expression)” value ([2]; 100 μM fusaric acid added in addition to 200 ng/ml SHH and 25 ng/ml FGF8) was “more increased”. For the same molecule, the “differentiation into dopaminergic neurons (TH expression)” value ([2]; 100 μM fusaric acid instead of SHH and FGF8, NB medium, 2% B-27, 10 μM forskolin, 100 μM db-cAMP) was “higher differentiation potential into dopaminergic neurons; also recorded: differentiated most effectively into dopaminergic neurons”, the “differentiation into dopaminergic neurons (TH expression), hypoxia versus normoxia” value [3] was “differentiated more efficiently into dopaminergic neurons in hypoxia than in normoxia” and the “expression of TH (dopaminergic neuron marker)” value [4] was “remarkably high expressed”. The “expression of Tuj1 (neuronal marker)” value [4] was “also increased”, the neuroprotective activity ([5]; conclusion from FIG. 6, MPP treatment) was “has neuroprotective activity” and the “expression of Tuj1 under MPP treatment” value [5, 6] was “relatively more expressed”. The “survival of TH-expressing cells under MPP treatment” value [5, 6] was “more TH-expressing cells survived”.
